# Measurements reported in PubChem BioAssay (NCI).
#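 Tested at 5 concentrations; 48 h exposure; 96-well plates; endpoints linearly interpolated, else capped at highest concentration. The concentration for full growth arrest is given as TGI.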
# What was measured:
# Assay in all cases: inhibition of tumour cell growth, NCI panel, 48 h
# A549 NSCLC = system: A549 NSCLC
# ACHN renal = system: ACHN renal
# BT-549 breast = system: BT-549 breast
# CAKI-1 renal = system: CAKI-1 renal
# CCRF-CEM leukemia = system: CCRF-CEM leukemia
# COLO 205 colon = system: COLO 205 colon
# DU-145 prostate = system: DU-145 prostate
# EKVX NSCLC = system: EKVX NSCLC
# HCT-116 colon = system: HCT-116 colon
# HCT-15 colon = system: HCT-15 colon
# HL-60(TB) leukemia = system: HL-60(TB) leukemia
# HOP-62 NSCLC = system: HOP-62 NSCLC
# HS 578T breast = system: HS 578T breast
# HT29 colon = system: HT29 colon
# IGROV1 ovarian = system: IGROV1 ovarian
# K-562 leukemia = system: K-562 leukemia
# KM12 colon = system: KM12 colon
# LOX IMVI melanoma = system: LOX IMVI melanoma
# M14 melanoma = system: M14 melanoma
# MALME-3M melanoma = system: MALME-3M melanoma
# MCF7 breast = system: MCF7 breast
# MDA-MB-231 breast = system: MDA-MB-231 breast
# MDA-MB-435 = system: MDA-MB-435
# MDA-N = system: MDA-N
# MOLT-4 leukemia = system: MOLT-4 leukemia
# NCI-H23 lung = system: NCI-H23 lung
# NCI-H460 lung = system: NCI-H460 lung
# NCI/ADR-RES ovarian = system: NCI/ADR-RES ovarian
# OVCAR-3 ovarian = system: OVCAR-3 ovarian
# OVCAR-4 ovarian = system: OVCAR-4 ovarian
# OVCAR-5 ovarian = system: OVCAR-5 ovarian
# OVCAR-8 ovarian = system: OVCAR-8 ovarian
# PC-3 prostate = system: PC-3 prostate
# RPMI-8226 leukemia = system: RPMI-8226 leukemia
# RXF 393 renal = system: RXF 393 renal
# SF-268 CNS = system: SF-268 CNS
# SF-295 CNS = system: SF-295 CNS
# SF-539 CNS = system: SF-539 CNS
# SK-MEL-28 melanoma = system: SK-MEL-28 melanoma
# SK-MEL-5 melanoma = system: SK-MEL-5 melanoma
# SK-OV-3 ovarian = system: SK-OV-3 ovarian
# SN12C renal = system: SN12C renal
# SNB-19 CNS = system: SNB-19 CNS
# SNB-75 CNS = system: SNB-75 CNS
# SR leukemia = system: SR leukemia
# SW-620 colon = system: SW-620 colon
# T-47D breast = system: T-47D breast
# TK-10 renal = system: TK-10 renal
# U251 CNS = system: U251 CNS
# UACC-257 melanoma = system: UACC-257 melanoma
# UACC-62 melanoma = system: UACC-62 melanoma
# UO-31 renal = system: UO-31 renal
# 786-0 renal = system: 786-0 renal
# A498 renal = system: A498 renal
# HCC-2998 colon = system: HCC-2998 colon
# HOP-92 NSCLC = system: HOP-92 NSCLC
# NCI-H522 lung = system: NCI-H522 lung
# NCI-H226 lung = system: NCI-H226 lung
# SK-MEL-2 melanoma = system: SK-MEL-2 melanoma
compound,measurement,setting,value
COc1ccc(-c2c3c(nc4[nH]c(=S)[nH]c(=S)c24)CCCC3)cc1OC,TGI,A549 NSCLC,59 µM
same,TGI,ACHN renal,> 100 µM
same,TGI,BT-549 breast,> 100 µM
same,TGI,CAKI-1 renal,> 100 µM
same,TGI,CCRF-CEM leukemia,73.1 µM
same,TGI,COLO 205 colon,> 100 µM
same,TGI,DU-145 prostate,> 100 µM
same,TGI,EKVX NSCLC,76.9 µM
same,TGI,HCT-116 colon,> 100 µM
same,TGI,HCT-15 colon,> 100 µM
same,TGI,HL-60(TB) leukemia,> 100 µM
same,TGI,HOP-62 NSCLC,> 100 µM
same,TGI,HS 578T breast,54.4 µM
same,TGI,HT29 colon,> 100 µM
same,TGI,IGROV1 ovarian,76.2 µM
same,TGI,K-562 leukemia,> 100 µM
same,TGI,KM12 colon,> 100 µM
same,TGI,LOX IMVI melanoma,45.3 µM
same,TGI,M14 melanoma,> 100 µM
same,TGI,MALME-3M melanoma,> 100 µM
same,TGI,MCF7 breast,> 100 µM
same,TGI,MDA-MB-231 breast,> 100 µM
same,TGI,MDA-MB-435,> 100 µM
same,TGI,MDA-N,> 100 µM
same,TGI,MOLT-4 leukemia,61.2 µM
same,TGI,NCI-H23 lung,> 100 µM
same,TGI,NCI-H460 lung,42.9 µM
same,TGI,NCI/ADR-RES ovarian,66.1 µM
same,TGI,OVCAR-3 ovarian,> 100 µM
same,TGI,OVCAR-4 ovarian,> 100 µM
same,TGI,OVCAR-5 ovarian,> 100 µM
same,TGI,OVCAR-8 ovarian,74.6 µM
same,TGI,PC-3 prostate,79 µM
same,TGI,RPMI-8226 leukemia,> 100 µM
same,TGI,RXF 393 renal,57.9 µM
same,TGI,SF-268 CNS,> 100 µM
same,TGI,SF-295 CNS,38.8 µM
same,TGI,SF-539 CNS,28.6 µM
same,TGI,SK-MEL-28 melanoma,70.7 µM
same,TGI,SK-MEL-5 melanoma,32.6 µM
same,TGI,SK-OV-3 ovarian,> 100 µM
same,TGI,SN12C renal,86.2 µM
same,TGI,SNB-19 CNS,> 100 µM
same,TGI,SNB-75 CNS,51.2 µM
same,TGI,SR leukemia,> 100 µM
same,TGI,SW-620 colon,> 100 µM
same,TGI,T-47D breast,> 100 µM
same,TGI,TK-10 renal,> 100 µM
same,TGI,U251 CNS,39.6 µM
same,TGI,UACC-257 melanoma,> 100 µM
same,TGI,UACC-62 melanoma,37.5 µM
same,TGI,UO-31 renal,> 100 µM
O=C1CN(c2ccccc2)C(=O)CN1CCN1CC(=O)N(c2ccccc2)CC1=O,TGI,786-0 renal,> 100 µM
same,TGI,A498 renal,> 100 µM
same,TGI,A549 NSCLC,> 100 µM
same,TGI,ACHN renal,> 100 µM
same,TGI,BT-549 breast,> 100 µM
same,TGI,CAKI-1 renal,> 100 µM
same,TGI,COLO 205 colon,> 100 µM
same,TGI,DU-145 prostate,> 100 µM
same,TGI,EKVX NSCLC,> 100 µM
same,TGI,HCC-2998 colon,> 100 µM
same,TGI,HCT-116 colon,> 100 µM
same,TGI,HCT-15 colon,> 100 µM
same,TGI,HL-60(TB) leukemia,> 100 µM
same,TGI,HOP-62 NSCLC,> 100 µM
same,TGI,HOP-92 NSCLC,> 100 µM
same,TGI,HS 578T breast,> 100 µM
same,TGI,HT29 colon,> 100 µM
same,TGI,IGROV1 ovarian,> 100 µM
same,TGI,KM12 colon,> 100 µM
same,TGI,M14 melanoma,> 100 µM
same,TGI,MALME-3M melanoma,> 100 µM
same,TGI,MCF7 breast,> 100 µM
same,TGI,MDA-MB-435,> 100 µM
same,TGI,MDA-N,> 100 µM
same,TGI,NCI-H23 lung,> 100 µM
same,TGI,NCI-H460 lung,> 100 µM
same,TGI,NCI-H522 lung,> 100 µM
same,TGI,OVCAR-3 ovarian,> 100 µM
same,TGI,OVCAR-4 ovarian,> 100 µM
same,TGI,OVCAR-5 ovarian,> 100 µM
same,TGI,OVCAR-8 ovarian,> 100 µM
same,TGI,PC-3 prostate,> 100 µM
same,TGI,RPMI-8226 leukemia,> 100 µM
same,TGI,RXF 393 renal,> 100 µM
same,TGI,SF-268 CNS,> 100 µM
same,TGI,SF-295 CNS,> 100 µM
same,TGI,SF-539 CNS,> 100 µM
same,TGI,SK-MEL-28 melanoma,> 100 µM
same,TGI,SK-MEL-5 melanoma,> 100 µM
same,TGI,SK-OV-3 ovarian,> 100 µM
same,TGI,SN12C renal,> 100 µM
same,TGI,SNB-19 CNS,> 100 µM
same,TGI,SNB-75 CNS,> 100 µM
same,TGI,SR leukemia,> 100 µM
same,TGI,SW-620 colon,> 100 µM
same,TGI,TK-10 renal,> 100 µM
same,TGI,U251 CNS,> 100 µM
same,TGI,UACC-257 melanoma,> 100 µM
same,TGI,UACC-62 melanoma,> 100 µM
same,TGI,UO-31 renal,> 100 µM
CO/N=C(\C(=O)[N-][n+]1cnn(CC(=O)O)c1)c1csc(N)n1,TGI,786-0 renal,> 10 µM
same,TGI,A549 NSCLC,> 10 µM
same,TGI,ACHN renal,> 10 µM
same,TGI,BT-549 breast,> 10 µM
same,TGI,CAKI-1 renal,> 10 µM
same,TGI,CCRF-CEM leukemia,> 10 µM
same,TGI,COLO 205 colon,> 10 µM
same,TGI,DU-145 prostate,> 10 µM
same,TGI,EKVX NSCLC,> 10 µM
same,TGI,HCC-2998 colon,> 10 µM
same,TGI,HCT-116 colon,> 10 µM
same,TGI,HCT-15 colon,> 10 µM
same,TGI,HL-60(TB) leukemia,> 10 µM
same,TGI,HOP-62 NSCLC,> 10 µM
same,TGI,HOP-92 NSCLC,> 10 µM
same,TGI,HT29 colon,> 10 µM
same,TGI,IGROV1 ovarian,> 10 µM
same,TGI,K-562 leukemia,> 10 µM
same,TGI,KM12 colon,> 10 µM
same,TGI,LOX IMVI melanoma,> 10 µM
same,TGI,M14 melanoma,> 10 µM
same,TGI,MCF7 breast,> 10 µM
same,TGI,MDA-MB-231 breast,> 10 µM
same,TGI,MDA-N,> 10 µM
same,TGI,MOLT-4 leukemia,> 10 µM
same,TGI,NCI-H23 lung,> 10 µM
same,TGI,NCI-H460 lung,> 10 µM
same,TGI,OVCAR-4 ovarian,> 10 µM
same,TGI,OVCAR-8 ovarian,> 10 µM
same,TGI,RPMI-8226 leukemia,> 10 µM
same,TGI,SF-268 CNS,> 10 µM
same,TGI,SK-MEL-28 melanoma,> 10 µM
same,TGI,SK-MEL-5 melanoma,> 10 µM
same,TGI,SK-OV-3 ovarian,> 10 µM
same,TGI,SN12C renal,> 10 µM
same,TGI,SNB-75 CNS,> 10 µM
same,TGI,SR leukemia,> 10 µM
same,TGI,SW-620 colon,> 10 µM
same,TGI,T-47D breast,> 10 µM
same,TGI,TK-10 renal,> 10 µM
same,TGI,UACC-257 melanoma,> 10 µM
same,TGI,UACC-62 melanoma,> 10 µM
C(/C=C/Nc1ccc(-c2ccccc2)cc1)=Nc1ccc(-c2ccccc2)cc1,TGI,786-0 renal,> 100 µM
same,TGI,A549 NSCLC,> 100 µM
same,TGI,ACHN renal,> 100 µM
same,TGI,BT-549 breast,> 100 µM
same,TGI,CAKI-1 renal,> 100 µM
same,TGI,CCRF-CEM leukemia,> 100 µM
same,TGI,COLO 205 colon,> 100 µM
same,TGI,DU-145 prostate,> 100 µM
same,TGI,EKVX NSCLC,> 100 µM
same,TGI,HCT-116 colon,> 100 µM
same,TGI,HCT-15 colon,> 100 µM
same,TGI,HL-60(TB) leukemia,> 100 µM
same,TGI,HOP-62 NSCLC,> 100 µM
same,TGI,HOP-92 NSCLC,> 100 µM
same,TGI,HS 578T breast,> 100 µM
same,TGI,HT29 colon,> 100 µM
same,TGI,IGROV1 ovarian,> 100 µM
same,TGI,K-562 leukemia,> 100 µM
same,TGI,KM12 colon,> 100 µM
same,TGI,LOX IMVI melanoma,> 100 µM
same,TGI,M14 melanoma,> 100 µM
same,TGI,MCF7 breast,> 100 µM
same,TGI,MDA-MB-231 breast,> 100 µM
same,TGI,MDA-MB-435,> 100 µM
same,TGI,MDA-N,> 100 µM
same,TGI,MOLT-4 leukemia,> 100 µM
same,TGI,NCI-H226 lung,> 100 µM
same,TGI,NCI-H23 lung,> 100 µM
same,TGI,NCI-H460 lung,> 100 µM
same,TGI,NCI-H522 lung,> 100 µM
same,TGI,NCI/ADR-RES ovarian,> 100 µM
same,TGI,OVCAR-3 ovarian,> 100 µM
same,TGI,OVCAR-4 ovarian,> 100 µM
same,TGI,OVCAR-5 ovarian,> 100 µM
same,TGI,OVCAR-8 ovarian,> 100 µM
same,TGI,PC-3 prostate,> 100 µM
same,TGI,RPMI-8226 leukemia,> 100 µM
same,TGI,RXF 393 renal,> 100 µM
same,TGI,SF-268 CNS,> 100 µM
same,TGI,SF-295 CNS,> 100 µM
same,TGI,SF-539 CNS,> 100 µM
same,TGI,SK-MEL-2 melanoma,> 100 µM
same,TGI,SK-MEL-28 melanoma,> 100 µM
same,TGI,SK-MEL-5 melanoma,> 100 µM
same,TGI,SK-OV-3 ovarian,> 100 µM
same,TGI,SN12C renal,> 100 µM
same,TGI,SNB-19 CNS,> 100 µM
same,TGI,SNB-75 CNS,> 100 µM
same,TGI,SR leukemia,> 100 µM
same,TGI,SW-620 colon,> 100 µM
same,TGI,T-47D breast,> 100 µM
same,TGI,TK-10 renal,> 100 µM
same,TGI,U251 CNS,> 100 µM
same,TGI,UACC-257 melanoma,> 100 µM
same,TGI,UACC-62 melanoma,> 100 µM
same,TGI,UO-31 renal,> 100 µM
